Tested on: MCF7 cells
Test: Caspase activation (FITC-VAD-FMK), Annexin V and propidium iodide staining
Format: cell-based, human
Settings: 20 μM, 8 h
Protocol: We began our biological investigations by assaying the cytotoxicity of natural deoxyelephantopin (DEP) and its unnatural analogues in four different cancer cell lines (Fig. 5a, Supplementary Figs 6–8).
Figure 5 Assessing the cytotoxicity of deoxyelephantopin (DEP) and analogues. (a) Cell viability measurements in four different cancer cell lines. Cells were treated with compounds for 3 days, the nuclei were stained with DAPI and counted (EC50 values±s.d. shown; n=3). **P<0.005 and ***P<0.0005 by two-sided Student's t-test. (b) Detection of caspase activation and apoptosis in MCF7 cells using FITC-VAD-FMK fluorescent probe (top) or Annexin V staining (bottom). The cells were treated with 1 μM staurosporine (positive control) or 20 μM deoxyelephantopin for 8 h. Confocal microscopy images are shown. EC50, effector concentration for half-maximum response. Scale bars, 30μm. […]
Biological materials. […] Protein concentration was determined using the Bradford assay (Bio-Rad).
Cell culture and preparation of lysates. […] Cells were lysed by sonication to form cell lysates and protein concentration was determined using the Bradford […]
’ cells/mL and HeLa: 1 ’ cells/mL) in a 96-well plate and allowed to attach overnight. […] Cells were imaged using a SpectraMax i3 plate reader equipped with a SpectraMax MiniMax imaging cytometer (Molecular Devices). […]
Caspase activity labeling for fluorescence cell imaging. […]

## C=C(C)C(=O)O[C@H]1CC2=C[C@@H](C/C(C)=C/[C@H]3OC(=O)C(=C)[C@H]13)OC2=O [deoxyelephantopin]
  cause of cell death (FITC-VAD-FMK, Annexin-V-FLUOS staining): caspase-mediated apoptosis
  necrotic death (propidium iodide staining): did not indicate any significant necrotic death
